The results in this text go back to patent US20230167103A1 (Bayer Aktiengesellschaft, priority 2020, published 2023).

By IC50 is commonly meant the point on the concentration scale where inhibition reaches its midpoint.

The target of one assay is T1, human DGKζ (Homo sapiens, UniProt Q13574).
T1 construct: made in house; host or cells: Sf9 insect cells, baculovirus
T1 sequence (Q13574 with tags, fused parts or gaps): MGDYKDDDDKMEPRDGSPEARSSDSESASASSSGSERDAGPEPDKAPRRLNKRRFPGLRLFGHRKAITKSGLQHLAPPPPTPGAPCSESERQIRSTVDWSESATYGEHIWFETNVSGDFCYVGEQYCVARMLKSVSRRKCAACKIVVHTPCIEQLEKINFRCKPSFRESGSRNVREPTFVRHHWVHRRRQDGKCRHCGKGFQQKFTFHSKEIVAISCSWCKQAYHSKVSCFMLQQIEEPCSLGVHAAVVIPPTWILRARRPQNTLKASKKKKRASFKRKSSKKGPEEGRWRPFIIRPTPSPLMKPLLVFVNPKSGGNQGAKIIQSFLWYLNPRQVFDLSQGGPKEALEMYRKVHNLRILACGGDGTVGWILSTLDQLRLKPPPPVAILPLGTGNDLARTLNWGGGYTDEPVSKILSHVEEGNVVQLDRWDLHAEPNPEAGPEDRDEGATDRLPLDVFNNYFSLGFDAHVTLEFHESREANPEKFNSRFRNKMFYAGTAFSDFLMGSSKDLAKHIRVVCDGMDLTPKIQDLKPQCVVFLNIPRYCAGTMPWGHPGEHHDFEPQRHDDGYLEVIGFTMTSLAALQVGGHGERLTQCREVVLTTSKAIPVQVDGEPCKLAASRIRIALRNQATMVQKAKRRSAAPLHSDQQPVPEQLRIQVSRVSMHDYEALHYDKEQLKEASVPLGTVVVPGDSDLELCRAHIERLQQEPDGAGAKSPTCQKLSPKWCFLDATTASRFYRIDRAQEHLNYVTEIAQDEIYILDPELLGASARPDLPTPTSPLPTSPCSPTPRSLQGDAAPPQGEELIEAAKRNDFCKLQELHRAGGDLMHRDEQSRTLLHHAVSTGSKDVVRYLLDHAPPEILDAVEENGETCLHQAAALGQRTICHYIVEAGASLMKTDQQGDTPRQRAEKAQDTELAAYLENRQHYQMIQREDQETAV
The assay can be described thus: Human DGKζ kinase activity inhibition assay (ADP-Glo). It counts as biochemical. Conditions: example compounds; recombinant full-length human DGKζ, 1,2-dioleoyl-sn-glycerol 7 μM, ATP 55 μM, 20 min at 22° C.; read-out: IC50 values of examples in in vitro human DGKζ kinase activity inhibition assays. Put shortly:
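Enzyme was C-terminally FLAG-tagged full-length human DGKζ from baculovirus-infected insect cells, typically about 0.1 nM, with 1,2-dioleoyl-sn-glycerol in octyl-β-D-glucopyranoside micelles as substrate. ADP formed was detected by ADP-Glo luminescence; data normalised to no-inhibitor (0%) and no-enzyme (100%) controls.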
In the case of `CC(C(N)=O)N(c1ccc(F)cc1)c1nc(N)c(C(=O)c2cc(C(=O)NC3CC(F)(F)C3)no2)s1` (single isomer, unassigned) [Example 32.1, 5-[4-amino-2-(N-(2-amino-1-methyl-2-oxo-ethyl)-4-fluoro-anilino)thiazole-5-carbonyl]-N-(3,3-difluorocyclobutyl)isoxazole-3-carboxamide], the IC50 was found to be 31 nM.

As to `CC(C(N)=O)N(c1ccc(F)cc1)c1nc(N)c(C(=O)c2cc(C(=O)NC3CC(F)(F)C3)no2)s1` (single isomer, unassigned) [Example 32.2, 5-[4-amino-2-(N-(2-amino-1-methyl-2-oxo-ethyl)-4-fluoro-anilino)thiazole-5-carbonyl]-N-(3,3-difluorocyclobutyl)isoxazole-3-carboxamide], the IC50 came to 897 nM.

As to `CC(C(N)=O)N(c1ccc(F)c(F)c1)c1nc(N)c(C(=O)c2cc(C(=O)NC3(C)CCC3)no2)s1` (single isomer, unassigned) [Example 44.1, 5-[4-amino-2-(N-(2-amino-1-methyl-2-oxo-ethyl)-3,4-difluoro-anilino)thiazole-5-carbonyl]-N-(1-methylcyclobutyl)isoxazole-3-carboxamide], the half-maximal inhibitory concentration (IC50) was found to be 19 nM.

For the compound `CC(C(N)=O)N(c1ccc(F)c(F)c1)c1nc(N)c(C(=O)c2cc(C(=O)NC3(C)CCC3)no2)s1` (single isomer, unassigned) [Example 44.2, 5-[4-amino-2-(N-(2-amino-1-methyl-2-oxo-ethyl)-3,4-difluoro-anilino)thiazole-5-carbonyl]-N-(1-methylcyclobutyl)isoxazole-3-carboxamide], the half-maximal inhibitory concentration (IC50) is 4510 nM.

As for `CC(C(N)=O)N(c1ccc(F)c(F)c1)c1nc(N)c(C(=O)c2cc(C(=O)NC3CC(F)(F)C3)no2)s1` (single isomer, unassigned) [Example 45.1, 5-[4-amino-2-(N-(2-amino-1-methyl-2-oxo-ethyl)-3,4-difluoro-anilino)thiazole-5-carbonyl]-N-(3,3-difluorocyclobutyl)isoxazole-3-carboxamide], the IC50 was 20 nM.

On to `CC(C(N)=O)N(c1ccc(F)c(F)c1)c1nc(N)c(C(=O)c2cc(C(=O)NC3CC(F)(F)C3)no2)s1` (single isomer, unassigned) [Example 45.2, 5-[4-amino-2-(N-(2-amino-1-methyl-2-oxo-ethyl)-3,4-difluoro-anilino)thiazole-5-carbonyl]-N-(3,3-difluorocyclobutyl)isoxazole-3-carboxamide], for which the IC50 came out at 1270 nM.

`CC(C(N)=O)N(c1ccc(F)c(F)c1)c1nc(N)c(C(=O)c2cc(C(=O)NC3CCCC3)no2)s1` (single isomer, unassigned) [Example 46.1, 5-[4-amino-2-(N-(2-amino-1-methyl-2-oxo-ethyl)-3,4-difluoro-anilino)thiazole-5-carbonyl]-N-cyclopentyl-isoxazole-3-carboxamide]: the IC50 came out at 27 nM.

On to `CC(C(N)=O)N(c1ccc(F)c(F)c1)c1nc(N)c(C(=O)c2cc(C(=O)NC3CCCC3)no2)s1` (single isomer, unassigned) [Example 46.2, 5-[4-amino-2-(N-(2-amino-1-methyl-2-oxo-ethyl)-3,4-difluoro-anilino)thiazole-5-carbonyl]-N-cyclopentyl-isoxazole-3-carboxamide], for which the IC50 is 2280 nM.

Regarding `C[C@H](C(N)=O)N(c1ccc(F)cc1)c1nc(N)c(C(=O)c2cc(-c3ccccc3)no2)s1` [Example 3.1, (R)-2-(N-[4-amino-5-(3-phenylisoxazole-5-carbonyl)thiazol-2-yl]-4-fluoro-anilino)propanamide], the IC50 was 61 nM.

Staying with this assay, now noted: intermediates (comparative, lacking the R2 alkyl-carboxamide group); same assay conditions; read-out: IC50 values of intermediates in in vitro human DGKζ kinase activity inhibition assays.
Take “rac-2-(N-[4-amino-5-[3-(pyrrolidine-1-carbonyl)isoxazole-5-carbonyl]thiazol-2-yl]-4-fluoro-anilino)propanamide [Example 19]”: the concentration for half-maximal inhibition (IC50) is over 20000 nM.

As for “rac-5-[4-amino-2-(N-(2-amino-1-methyl-2-oxo-ethyl)-4-fluoro-anilino)thiazole-5-carbonyl]-N-(1-cyclopropylcyclopropyl)isoxazole-3-carboxamide [Example 24]”, the IC50 is over 20000 nM.

Turning to “rac-5-[4-amino-2-(N-(2-amino-1-methyl-2-oxo-ethyl)-4-fluoro-anilino)thiazole-5-carbonyl]-N-(1-methylcyclobutyl)isoxazole-3-carboxamide [Example 30]”, the IC50 worked out at 12000 nM.

In the case of “rac-5-[4-amino-2-(N-(2-amino-1-methyl-2-oxo-ethyl)-4-fluoro-anilino)thiazole-5-carbonyl]-N-(2-pyridyl)isoxazole-3-carboxamide [Example 28]”, the IC50 is 19400 nM.
